Here are results for 30 compounds from patent US9994594B2, “Inhibitors of arginase and their therapeutic applications” (MARS, INCORPORATED, priority 2010, dated 2018).

The target in assay [1] is T1, human arginase I (ARG I) (Homo sapiens, UniProt P05089).
T1 sequence (P05089 1-322): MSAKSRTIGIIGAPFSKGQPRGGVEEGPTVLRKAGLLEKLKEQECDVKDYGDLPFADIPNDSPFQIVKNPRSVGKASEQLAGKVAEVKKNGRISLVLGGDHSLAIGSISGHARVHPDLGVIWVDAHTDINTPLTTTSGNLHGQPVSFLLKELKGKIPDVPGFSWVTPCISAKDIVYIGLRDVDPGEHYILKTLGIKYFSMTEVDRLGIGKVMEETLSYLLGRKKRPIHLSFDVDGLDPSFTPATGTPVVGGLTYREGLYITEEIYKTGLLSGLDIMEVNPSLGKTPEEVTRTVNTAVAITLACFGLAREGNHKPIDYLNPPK
Nature of the assay: Inhibition of arginase I, spectrophotometric urea assay at 530 nm. Type of assay: biochemical. The settings on record: read-out: Potency (ARG I). The method, boiled down: (§1)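 IC50 was derived by regression of OD530 normalized to uninhibited-enzyme controls against log concentration. Urea from 60-min, 37 °C turnover of L-arginine with manganese sulfate was detected after acid o-phthaldialdehyde/primaquine quench and 10 min colour development. Arginase I and II came from 100 ng/ml stocks in pH 7.4 phosphate with ovalbumin.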

In assay [2] the target is T2, arginase II (ARG II) (Homo sapiens, UniProt P78540).
T2 sequence (P78540 23-354): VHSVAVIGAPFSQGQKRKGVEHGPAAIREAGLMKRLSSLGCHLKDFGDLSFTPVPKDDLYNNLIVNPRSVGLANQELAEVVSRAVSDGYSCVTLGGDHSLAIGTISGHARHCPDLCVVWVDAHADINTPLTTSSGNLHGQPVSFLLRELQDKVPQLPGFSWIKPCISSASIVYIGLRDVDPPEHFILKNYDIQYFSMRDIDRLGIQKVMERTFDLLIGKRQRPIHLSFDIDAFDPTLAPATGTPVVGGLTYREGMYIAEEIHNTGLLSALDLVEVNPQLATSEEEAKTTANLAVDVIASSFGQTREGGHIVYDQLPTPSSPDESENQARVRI
Nature of the assay: Inhibition of arginase II, spectrophotometric urea assay at 530 nm. Type of assay: biochemical. The method, boiled down: as §1

[3] abbreviates: Formula II compounds, Table 2-A.
Where [4] appears, read: Formula II compounds, Table 2-A, read-out: Potency (ARG).
[5] abbreviates: Formula I compounds, Table 2, read-out: Potency (ARG II).

Where a name gives a salt, the structure may show the parent alone. Read-outs that look alike come from different tables or passages of the source.

For the compound `NC(CCCCB(O)O)(C(=O)O)C1CCN(c2nc3ccc(Cl)cc3o2)CC1` (stereo not drawn) [4-A, 2-amino-6-borono-2-[(6-chlorobenzoxazol-2-yl)-piperidin-4-yl)-hexanoic acid hydrochloride], the IC50 was 251 to 1000 nM in assay [1] (setting [3]) and 1000 to 2000 nM in assay [2] (setting [4]).

For the compound `NC(CCCCB(O)O)(C(=O)O)[C@H]1C[C@@H](NCc2cccc3ccccc23)C1` (stereo partly drawn) [Example 80-A, cis-2-amino-6-borono-2-(3-(naphthalen-1-ylmethylamino)cyclobutyl)hexanoic acid dihydrochloride], the IC50 in assay [1] (setting [3]) and in assay [2] (setting [4]) was 0.1 to 250 nM in each case.

As to `NC(CCCCB(O)O)(CCNC1CC1)C(=O)O` (stereo not drawn) [compound 68, 2-amino-6-borono-2-(2-(cyclopropylamino)ethyl)hexanoic acid dihydrochloride], the IC50 in assay [1] (Formula I compounds, Table 2) was in the range of 251 to 1000 nM; in assay [2] (setting [5]) it was 251 to 1000 nM.

As for `NC(CCCCB(O)O)(CCN1CCC[C@H]1CN1CCCC1)C(=O)O` (stereo partly drawn) [compound 40, 2-amino-6-borono-2-(2-((S)-2-(pyrrolidin-1-ylmethyl)pyrrolidin-1-yl)ethyl)hexanoic acid trihydrochloride], the IC50 was 1000 to 2000 nM in assay [1] (Formula I compounds, Table 2) and 2000 to 5000 nM in assay [2] (setting [5]).

In the case of `COc1cc(F)c(CN2CCC(C(N)(CCCCB(O)O)C(=O)O)CC2)cc1OC` (stereo not drawn) [Example 96-A, 2-amino-6-borono-2-(1-(2-fluoro-4,5-dimethoxybenzyl)piperidin-4-yl)hexanoic acid dihydrochloride], the IC50 is 0.1 to 250 nM in assay [1] (setting [3]) and 251 to 1000 nM in assay [2] (setting [4]).

In the case of `NC(CCCCB(O)O)(C(=O)O)C1CCN(Cc2cccc3c2OCCC3)CC1` (stereo not drawn) [Example 60-A, 2-amino-6-borono-2-(1-(chroman-8-ylmethyl)piperidin-4-yl)hexanoic acid dihydrochloride], the IC50 in assay [1] (setting [3]) and in assay [2] (setting [4]) was 0.1 to 250 nM each time.

Regarding `NC(CCCCB(O)O)(CNC(c1ccccc1)C(O)c1ccccc1)C(=O)O` (stereo in doubt) [compound 89, 2-amino-6-borono-2-(((1R,2S)-2-hydroxy-1,2-diphenylethylamino)methyl)hexanoic acid dihydrochloride], the IC50 in assay [1] (Formula I compounds, Table 2) was more than 5000 nM; in assay [2] (setting [5]), more than 5000 nM.

For `NC(CCCCB(O)O)(C(=O)O)C(O)C1CCCNC1` (stereo not drawn) [compound 110, 2-amino-6-borono-2-(hydroxy(piperidin-3-yl)methyl)hexanoic acid dihydrochloride], the IC50 in assay [1] (Formula I compounds, Table 2) is 1000 to 2000 nM; in assay [2] (setting [5]), 2000 to 5000 nM.

Turning to `NC(CCCCB(O)O)(CCCOc1ccc(Cl)cc1)C(=O)O` (stereo not drawn) [compound 96, 2-Amino-6-borono-2-[3-(4-chlorophenoxy)-propyl]-hexanoic acid hydrochloride], the IC50 in assay [1] (Formula I compounds, Table 2) was in the range of 1000 to 2000 nM; in assay [2] (setting [5]), 1000 to 2000 nM.

As for `CCN(CC)CCC(N)(CCCCB(O)O)C(=O)O` (stereo not drawn) [compound 37, 2-amino-6-borono-2-(2-(diethylamino)ethyl)hexanoic acid dihydrochloride], the IC50 in assay [1] (Formula I compounds, Table 2) lay within 251 to 1000 nM; in assay [2] (setting [5]) it was 1000 to 2000 nM.

Turning to `NC(CCCCB(O)O)(C(=O)O)[C@@H]1CCN(Cc2ccccc2)C1` (stereo partly drawn) [Example 67-A, 2-amino-2-((R)-1-benzylpyrrolidin-3-yl)-6-boronohexanoic acid dihydrochloride], the IC50 in assay [1] (setting [3]) and in assay [2] (setting [4]) was 251 to 1000 nM throughout.

Consider `NC(CCCCB(O)O)(C(=O)O)C1CCN(Cc2ccc(F)c(F)c2)CC1` (stereo not drawn) [Example 48-A, 2-amino-6-borono-2-(1-(3,4-difluorobenzyl)piperidin-4-yl)hexanoic acid], for which the IC50 in assay [1] (setting [3]) is 0.1 to 250 nM; in assay [2] (setting [4]), 251 to 1000 nM.

With `NC(CCCCB(O)O)(CCN1CCC(Cc2ccc(F)cc2)CC1)C(=O)O` (stereo not drawn) [compound 127, 2-amino-6-borono-2-(2-(4-(4-fluorobenzyl)piperidin-1-yl)ethyl)hexanoic acid dihydrochloride], the IC50 in assay [1] (Formula I compounds, Table 2) fell in the range of 251 to 1000 nM; in assay [2] (setting [5]), 251 to 1000 nM.

In the case of `NC(CCCCB(O)O)(C(=O)O)[C@@H]1CCN(S(=O)(=O)c2ccccc2[N+](=O)[O-])C1` (stereo partly drawn) [Example 40-A, 2-amino-6-borono-2-((R)-1-(2-nitrophenylsulfonyl)pyrrolidin-3-yl)hexanoic acid], the IC50 in assay [1] (setting [3]) and in assay [2] (setting [4]) was 251 to 1000 nM in each case.

Take `CNC(CCCCB(O)O)(CCCN1CCCCC1)C(=O)O` (stereo not drawn) [compound 148, 6-borono-2-(methylamino)-2-(3-(piperidin-1-yl)propyl)hexanoic acid dihydrochloride]: the IC50 lay within 0.1 to 250 nM in assay [1] (Formula I compounds, Table 2) and 0.1 to 250 nM in assay [2] (setting [5]).

Regarding `CCCNCC(N)(CCCCB(O)O)C(=O)O` (stereo not drawn) [compound 83, 2-amino-6-borono-2-((propylamino)methyl)hexanoic acid dihydrochloride], the IC50 in assay [1] (Formula I compounds, Table 2) lay within 2000 to 5000 nM; in assay [2] (setting [5]), 2000 to 5000 nM.

For `CC(C)(C)NCCC(N)(CCCCB(O)O)C(=O)O` (stereo not drawn) [compound 67, 2-amino-6-borono-2-(2-(tert-butylamino)ethyl)hexanoic acid dihydrochloride], the IC50 was in the range of 251 to 1000 nM in assay [1] (Formula I compounds, Table 2) and 251 to 1000 nM in assay [2] (setting [5]).

With `NC(CCCCB(O)O)(CCNCc1ccccc1)C(=O)O` (stereo not drawn) [compound 70, 2-amino-2-(2-(benzylamino)ethyl)-6-boronohexanoic acid dihydrochloride], the IC50 fell in the range of 0.1 to 250 nM in assay [1] (Formula I compounds, Table 2) and 251 to 1000 nM in assay [2] (setting [5]).

As for `CCCN1CCC(C(N)(CCCCB(O)O)C(=O)O)CC1` (stereo not drawn) [Example 101-A, 2-amino-6-borono-2-(1-propylpiperidin-4-yl)hexanoic acid dihydrochloride], the IC50 in assay [1] (setting [3]) lay within 251 to 1000 nM; in assay [2] (setting [4]), 0.1 to 250 nM.

As for `CNC(CCCCB(O)O)(CCCNC1Cc2ccccc2C1)C(=O)O` (stereo not drawn) [compound 138, 6-borono-2-(3-(2,3-dihydro-1H-inden-2-ylamino)propyl)-2-(methylamino)hexanoic acid dihydrochloride], the IC50 in assay [1] (Formula I compounds, Table 2) was in the range of 0.1 to 250 nM; in assay [2] (setting [5]), 0.1 to 250 nM.

`NC(CCCCB(O)O)(CCN(CCO)Cc1ccccc1)C(=O)O` (stereo not drawn) [compound 20, 2-Amino-2-{2-[benzyl-(2-hydroxyethyl)-amino]-ethyl}-6-borono-hexanoic acid dihydrochloride]: the IC50 in assay [1] (Formula I compounds, Table 2) is 2000 to 5000 nM; in assay [2] (setting [5]), 2000 to 5000 nM.

For `COc1ccc(C2=CCN(CCC(N)(CCCCB(O)O)C(=O)O)CC2)cc1` (stereo not drawn) [compound 31, 2-amino-6-borono-2-(2-(4-(4-methoxyphenyl)-5,6-dihydropyridin-1(2H)-yl)ethyl)hexanoic acid dihydrochloride], the IC50 is 251 to 1000 nM in assay [1] (Formula I compounds, Table 2) and 251 to 1000 nM in assay [2] (setting [5]).

Regarding `NC(CCCCB(O)O)(C(=O)O)[C@H]1C[C@@H](NCc2ccc(OC(F)(F)F)cc2)C1` (stereo partly drawn) [Example 76-A, cis-2-amino-6-borono-2-(3-(4-(trifluoromethoxy)benzylamino)cyclobutyl)hexanoic acid dihydrochloride], the IC50 in assay [1] (setting [3]) and in assay [2] (setting [4]) was 0.1 to 250 nM in each case.

`CC1(C)CCC(N2CCC(C(N)(CCCCB(O)O)C(=O)O)CC2)CC1` (stereo not drawn) [25-A, 2-amino-6-borono-2-[1-(4,4-dimethylcyclohexyl)piperidin-4-yl]hexanoic acid dihydrochloride]: the IC50 was in the range of 0.1 to 250 nM in assay [1] (setting [3]) and 251 to 1000 nM in assay [2] (setting [4]).

For the compound `NC(CCCCB(O)O)(C(=O)O)C1CCNCC1` (stereo not drawn) [Example 88-A, 2-amino-6-borono-2-(piperidin-4-yl)hexanoic acid dihydrochloride], the IC50 in assay [1] (setting [3]) and in assay [2] (setting [4]) was 251 to 1000 nM each time.

As to `COc1ccc(CNCCC(N)(CCCCB(O)O)C(=O)O)cc1` (stereo not drawn) [compound 69, 2-amino-6-borono-2-(2-(4-methoxybenzylamino)ethyl)hexanoic acid dihydrochloride], the IC50 in assay [1] (Formula I compounds, Table 2) fell in the range of 0.1 to 250 nM; in assay [2] (setting [5]) it was 0.1 to 250 nM.

On to `NC(CCCCB(O)O)(CCCNCc1ccc(Cl)c(Cl)c1)C(=O)O` (stereo not drawn) [compound 141, 2-amino-6-borono-2-(3-(3,4-dichlorobenzylamino)propyl)hexanoic acid dihydrochloride], for which the IC50 was in the range of 0.1 to 250 nM in assay [1] (Formula I compounds, Table 2) and 0.1 to 250 nM in assay [2] (setting [5]).

For `CNC(CCCCB(O)O)(CCN1CCCCC1)C(=O)O` (stereo not drawn) [compound 149, 6-borono-2-(methylamino)-2-(2-(piperidin-1-yl)ethyl)hexanoic acid], the IC50 is 0.1 to 250 nM in assay [1] (Formula I compounds, Table 2) and 0.1 to 250 nM in assay [2] (setting [5]).

With `CNC(CCCCB(O)O)(CCCNCc1ccc(Cl)c(Cl)c1)C(=O)O` (stereo not drawn) [compound 136, 6-borono-2-(3-(3,4-dichlorobenzylamino)propyl)-2-(methylamino)hexanoic acid dihydrochloride], the IC50 was in the range of 0.1 to 250 nM in assay [1] (Formula I compounds, Table 2) and 0.1 to 250 nM in assay [2] (setting [5]).

As for `NC(CCCCB(O)O)(CCN1CCC(Cc2ccccc2)CC1)C(=O)O` (stereo not drawn) [compound 125, 2-amino-2-(2-(4-benzylpiperidin-1-yl)ethyl)-6-boronohexanoic acid dihydrochloride], the IC50 in assay [1] (Formula I compounds, Table 2) fell in the range of 251 to 1000 nM; in assay [2] (setting [5]), 251 to 1000 nM.
